Experimental data as given in patent publication US20130274338A1, “PHARMACEUTICAL COMPOSITIONS COMPRISING DGLA, 15-OHEPA, AND/OR 15-HETRE AND METHODS OF REDUCING SEBUM PRODUCTION USING SAME” (priority 2012, published 2013).

Test system: P. acnes
Assay: Agar dilution method, growth of P. acnes and MIC, combinations with a fatty acid spike
Type: cell-based, Propionibacterium acnes
Set-up: key to Growth Index Plate 1 / Growth Index Plate 2 / Growth Index Plate 3 / Growth Index Avg: +++: confluent growth (comparable to control); ++: less confluent growth; +: marked reduction in growth to multiple tiny, single colonies; −: no growth present
Experimental: Several compounds including fatty acids such as DGLA, 15-OHEPA, and 15-HETrE were tested to determine their capacity to inhibit the growth of P. acnes. In an exemplary method, an agar dilution method was used to determine the minimum inhibitory concentration (MIC) of each tested compound. Briefly, the agar dilution method involved preparing a series of concentrations of each compound (e.g., nicotinamide, benzoyl peroxide, adapalene, metronidazole, DGLA, 15-OHEPA, and 15-HETrE) in a Reinforced Clostridial Agar (RCA) media that facilitates growth of P. acnes under anaerobic conditions. An inoculum of P. acnes was prepared by incubation of P. acnes for approximately seven days at 35-37° C. to achieve a ≧1.0 OD600 inoculum of P. acnes in RCM broth. A portion of this inoculum was then added to the surface of each plate as a 10 μL spot and incubated at 35-37° C. for 72 hours or more. Growth of P. acnes was then observed and compared to control plates in which no compound has been added, and positive inhibition plates prepared with erythromycin. […] The growth of P. acnes in the presence of nicotinamide, benzoyl peroxide, adapalene, metronidazole, DGLA, 15-OHEPA, and 15-HETrE was determined with varying concentrations of the compound (see, Table 2). Next, the MIC was determined as the concentration at which a marked reduction (+) occurs in the appearance of growth on the test plate (as per Clinical and Laboratory Standards Institute M11-A7).
The compounds tested singly in Example 1 were tested in combination with one another to determine the capacity of the combination to inhibit the growth of P. acnes. In an exemplary method, the MIC was determined for each of the combination as described in Example 1. Briefly, test combinations included DGLA with nicotinamide, benzoyl peroxide, adapalene, or metronidazole; 15-HETrE with nicotinamide, benzoyl peroxide, adapalene, or metronidazole; and 15-OHEPA with nicotinamide, benzoyl peroxide, adapalene, or metronidazole. The tables below show the growth of P. acnes in the presence of 0.4 or 1.0 mg/mL DGLA with varying concentrations of nicotinamide, benzoyl peroxide, adapalene, or metronidazole (Table 3); the growth of P. acnes in the presence of 0.01 or 0.05 mg/mL 15-HETrE with varying concentrations of nicotinamide, benzoyl peroxide, adapalene, or metronidazole (Table 5); and the growth of P. acnes in the presence of 0.5 or 0.1 mg/mL 15-OHEPA with varying concentrations of nicotinamide, benzoyl peroxide, adapalene, or metronidazole (Table 7).

[1] = compound at 0.2 mg/mL + 0.01 mg/mL 15-HETrE
[2] = compound at 0.2 mg/mL + 0.05 mg/mL 15-HETrE
[3] = compound at 0.2 mg/mL + 0.05 mg/mL 15-OHEPA
[4] = compound at 0.2 mg/mL + 0.1 mg/mL 15-OHEPA
[5] = compound at 0.2 mg/mL + 0.4 mg/mL dGLA
[6] = compound at 0.2 mg/mL + 1.0 mg/mL dGLA
[7] = compound at 0.4 mg/mL + 0.01 mg/mL 15-HETrE
[8] = compound at 0.4 mg/mL + 0.05 mg/mL 15-HETrE
[9] = compound at 0.4 mg/mL + 0.05 mg/mL 15-OHEPA
[10] = compound at 0.4 mg/mL + 0.1 mg/mL 15-OHEPA
[11] = compound at 0.4 mg/mL + 0.4 mg/mL dGLA
[12] = compound at 0.4 mg/mL + 1.0 mg/mL dGLA
[13] = compound at 0.6 mg/mL + 0.01 mg/mL 15-HETrE
[14] = compound at 0.6 mg/mL + 0.05 mg/mL 15-HETrE
[15] = compound at 0.6 mg/mL + 0.05 mg/mL 15-OHEPA
[16] = compound at 0.6 mg/mL + 0.1 mg/mL 15-OHEPA
[17] = compound at 0.6 mg/mL + 0.4 mg/mL dGLA
[18] = compound at 0.6 mg/mL + 1.0 mg/mL dGLA
[19] = compound at 0.8 mg/mL + 0.01 mg/mL 15-HETrE
[20] = compound at 0.8 mg/mL + 0.05 mg/mL 15-HETrE
[21] = compound at 0.8 mg/mL + 0.05 mg/mL 15-OHEPA
[22] = compound at 0.8 mg/mL + 0.1 mg/mL 15-OHEPA
[23] = compound at 0.8 mg/mL + 0.4 mg/mL dGLA
[24] = compound at 0.8 mg/mL + 1.0 mg/mL dGLA
[25] = compound at 1.0 mg/mL + 0.01 mg/mL 15-HETrE
[26] = compound at 1.0 mg/mL + 0.05 mg/mL 15-HETrE
[27] = compound at 1.0 mg/mL + 0.05 mg/mL 15-OHEPA
[28] = compound at 1.0 mg/mL + 0.1 mg/mL 15-OHEPA
[29] = compound at 1.0 mg/mL + 0.4 mg/mL dGLA
[30] = compound at 1.0 mg/mL + 1.0 mg/mL dGLA

For `Cc1ncc([N+](=O)[O-])n1CCO` [Metronidazole], the “Growth Index Avg” value [1] was “+++”, the “Growth Index Plate 1” value [1] was “+++” and the “Growth Index Plate 2” value [1] was “+++”. For the same compound, the “Growth Index Plate 3” value [1] was “+++”, the “Growth Index Avg” value [2] was “−” and the “Growth Index Plate 1” value [2] was “−”. For the same compound, the “Growth Index Plate 2” value [2] was “−”, the “Growth Index Plate 3” value [2] was “−” and the “Growth Index Avg” value [3] was “+++”. For the same compound, the “Growth Index Plate 1” value [3] was “+++”, the “Growth Index Plate 2” value [3] was “+++” and the “Growth Index Plate 3” value [3] was “+++”. For the same compound, the “Growth Index Avg” value [4] was “−”, the “Growth Index Plate 1” value [4] was “−” and the “Growth Index Plate 2” value [4] was “−”. The “Growth Index Plate 3” value [4] was “−”, the “Growth Index Avg” value [5] was “+++” and the “Growth Index Plate 1” value [5] was “+++”. The “Growth Index Plate 2” value [5] was “+++”, the “Growth Index Plate 3” value [5] was “+++” and the “Growth Index Avg” value [6] was “+++”. The “Growth Index Plate 1” value [6] was “+++”, the “Growth Index Plate 2” value [6] was “+++” and the “Growth Index Plate 3” value [6] was “+++”. The “Growth Index Avg” value [7] was “+++”, the “Growth Index Plate 1” value [7] was “+++” and the “Growth Index Plate 2” value [7] was “+++”. The “Growth Index Plate 3” value [7] was “+++”, the “Growth Index Avg” value [8] was “−” and the “Growth Index Plate 1” value [8] was “−”. The “Growth Index Plate 2” value [8] was “−”, the “Growth Index Plate 3” value [8] was “−” and the “Growth Index Avg” value [9] was “+++”. The “Growth Index Plate 1” value [9] was “+++”, the “Growth Index Plate 2” value [9] was “+++” and the “Growth Index Plate 3” value [9] was “+++”. For the same compound, the “Growth Index Avg” value [10] was “−”, the “Growth Index Plate 1” value [10] was “−” and the “Growth Index Plate 2” value [10] was “−”. For the same compound, the “Growth Index Plate 3” value [10] was “−”, the “Growth Index Avg” value [11] was “+++” and the “Growth Index Plate 1” value [11] was “+++”. The “Growth Index Plate 2” value [11] was “+++”, the “Growth Index Plate 3” value [11] was “+++” and the “Growth Index Avg” value [12] was “+++”. For the same compound, the “Growth Index Plate 1” value [12] was “+++”, the “Growth Index Plate 2” value [12] was “+++” and the “Growth Index Plate 3” value [12] was “+++”. The “Growth Index Avg” value [13] was “+++”, the “Growth Index Plate 1” value [13] was “+++” and the “Growth Index Plate 2” value [13] was “+++”. The “Growth Index Plate 3” value [13] was “+++”, the “Growth Index Avg” value [14] was “−” and the “Growth Index Plate 1” value [14] was “−”. For the same compound, the “Growth Index Plate 2” value [14] was “−”, the “Growth Index Plate 3” value [14] was “−” and the “Growth Index Avg” value [15] was “+++”. For the same compound, the “Growth Index Plate 1” value [15] was “+++”, the “Growth Index Plate 2” value [15] was “+++” and the “Growth Index Plate 3” value [15] was “+++”. The “Growth Index Avg” value [16] was “−”, the “Growth Index Plate 1” value [16] was “−” and the “Growth Index Plate 2” value [16] was “−”. The “Growth Index Plate 3” value [16] was “−”, the “Growth Index Avg” value [17] was “+++” and the “Growth Index Plate 1” value [17] was “+++”. The “Growth Index Plate 2” value [17] was “+++”, the “Growth Index Plate 3” value [17] was “+++” and the “Growth Index Avg” value [18] was “+++”. The “Growth Index Plate 1” value [18] was “+++”, the “Growth Index Plate 2” value [18] was “+++” and the “Growth Index Plate 3” value [18] was “+++”. For the same compound, the “Growth Index Avg” value [19] was “+++”, the “Growth Index Plate 1” value [19] was “+++” and the “Growth Index Plate 2” value [19] was “+++”. For the same compound, the “Growth Index Plate 3” value [19] was “+++”, the “Growth Index Avg” value [20] was “−” and the “Growth Index Plate 1” value [20] was “−”. For the same compound, the “Growth Index Plate 2” value [20] was “−”, the “Growth Index Plate 3” value [20] was “−” and the “Growth Index Avg” value [21] was “+++”. For the same compound, the “Growth Index Plate 1” value [21] was “+++”, the “Growth Index Plate 2” value [21] was “+++” and the “Growth Index Plate 3” value [21] was “++”. For the same compound, the “Growth Index Avg” value [22] was “−”, the “Growth Index Plate 1” value [22] was “−” and the “Growth Index Plate 2” value [22] was “−”. For the same compound, the “Growth Index Plate 3” value [22] was “−”, the “Growth Index Avg” value [23] was “++” and the “Growth Index Plate 1” value [23] was “+++”. The “Growth Index Plate 2” value [23] was “++”, the “Growth Index Plate 3” value [23] was “++” and the “Growth Index Avg” value [24] was “+++”. The “Growth Index Plate 1” value [24] was “+++”, the “Growth Index Plate 2” value [24] was “+++” and the “Growth Index Plate 3” value [24] was “++”. The “Growth Index Avg” value [25] was “+++”, the “Growth Index Plate 1” value [25] was “+++” and the “Growth Index Plate 2” value [25] was “+++”. The “Growth Index Plate 3” value [25] was “+++”, the “Growth Index Avg” value [26] was “−” and the “Growth Index Plate 1” value [26] was “−”. For the same compound, the “Growth Index Plate 2” value [26] was “−”, the “Growth Index Plate 3” value [26] was “−” and the “Growth Index Avg” value [27] was “+++”. For the same compound, the “Growth Index Plate 1” value [27] was “+++”, the “Growth Index Plate 2” value [27] was “++” and the “Growth Index Plate 3” value [27] was “+++”. The “Growth Index Avg” value [28] was “−”, the “Growth Index Plate 1” value [28] was “−” and the “Growth Index Plate 2” value [28] was “−”. For the same compound, the “Growth Index Plate 3” value [28] was “−”, the “Growth Index Avg” value [29] was “++” and the “Growth Index Plate 1” value [29] was “++”. The “Growth Index Plate 2” value [29] was “++”, the “Growth Index Plate 3” value [29] was “++” and the “Growth Index Avg” value [30] was “++”. For the same compound, the “Growth Index Plate 1” value [30] was “++”, the “Growth Index Plate 2” value [30] was “++” and the “Growth Index Plate 3” value [30] was “++”. For the same compound, the “growth of P. Acnes in combination with 15-HETrE, compared with 15-HETrE used alone” value (in combination with 15-HETrE) was “did not reduce the growth”, the “growth of P. Acnes in combination with 15-OHEPA, compared with 15 OHEPA used alone” value (in combination with 15-OHEPA) was “did not reduce the growth” and the “growth of P. Acnes in combination with DGLA, compared with DGLA used alone” value (in combination with DGLA) was “did not reduce the growth”.
